According to patent US20150253330A1, “PRE-SELECTION OF SUBJECTS FOR THERAPEUTIC TREATMENT WITH AN HSP90 INHIBITOR BASED ON HYPOXIC STATUS” (Synta Pharmaceuticals Corp., priority 2012, published 2015):
“Also recorded” adds a separate entry of the source.

How the values were obtained:
[1] = tested on: A549 NSCLC cells; experiment: Mouse xenograft tumor model, ganetespib and BEZ235 (Example 9); format: in vivo, mice; conditions: ganetespib 50 mg/kg weekly i.v.; BEZ235 10 mg/kg 5 times a week p.o.; particularly at later time points; FIG. 8
Excerpt: Female immunodeficient CD-1 (nude) mice (Charles River Laboratories, Wilmington, Mass.) were maintained in a pathogen-free environment, and all in vivo procedures were approved by the Synta Pharmaceuticals Corp. Institutional Animal Care and Use Committee. A549 NSCLC cells (7.5×10^6) were subcutaneously implanted into the animals. Mice bearing established tumors (100-200 mm^3) were randomized into treatment groups of 8 and i.v. dosed via the tail vein with either vehicle, ganetespib formulated in 10/18 DRD (10% DMSO, 18% Cremophor RH 40, 3.6% dextrose, 68.4% water) or p.o. dosed with BEZ235 formulated in PEG300/NMP (90% PEG300, 10% N-Methylpyrrolidone). Animals were treated with ganetespib at 50 mg/kg weekly or BEZ235 at 10 mg/kg 5 times a week, either alone or in combination. Tumor growth inhibition was determined as described previously. See Proia et al, PLoS One. 2011; 6(4):e18552.

[2] = tested on: Chk1 and Chk2 phosphorylation; experiment: Western blot of Chk1 and Chk2 phosphorylation after bleomycin in Detroit 562 cells; format: cell-based; conditions: Detroit 562, 100 nM ganetespib 24 hours prior to bleomycin (5 μM)
Procedure: Protein expression was measured at the indicated time points after bleomycin treatment.
Cell extracts from Detroit 562 head and neck cancer cells were treated with 100 nM of ganetespib 24 hours prior to receiving the DNA damaging agent bleomycin (5 μM). Protein expression was measured at the indicated time points after bleomycin treatment.

[3] = tested on: Hsp90 client proteins; experiment: Western blot of Hsp90 client proteins in MKN45 cells; format: cell-based
[4] = tested on: Hsp90 client proteins; experiment: Western blot of Hsp90 client proteins in AGS gastric cancer cells; format: cell-based
Procedure: Ganetespib was also evaluated for its effects on Hsp90 client proteins in AGS gastric cancer cells by western blot. […] Similar to the observation in melanoma cells, exposure to ganetespib […] BRAF expression.

[5] = tested on: EGFR and other client proteins; experiment: Western blot of Hsp90 client proteins in Detroit 562 cells, 24 hr; format: cell-based; conditions: Detroit 562, 24 hr
Excerpt: Head and neck (H/N) cancer refers to a group of biologically similar cancers originating from the upper autodigestive tract. First line therapies include EGFR inhibitors and platins. Modulation of EGFR and other client proteins by ganetespib was investigated in Detroit 562 H/N cancer cells.

[6] = tested on: KRAS mutant NSCLC cell lines; experiment: Combinatorial viability analysis in KRAS mutant NSCLC cell lines; format: cell-based
Procedure: For combinatorial analysis, cells were seeded in 96-well plates at a predetermined, optimum growth density for 24 h prior to the addition of drug or vehicle to the culture medium. Drug combinations were applied at a non-constant ratio over a range of concentrations for 72 or 96 hours. […] Cell viability was assessed by either AlamarBlue® (Invitrogen, Carlsbad, Calif.) or CellTiter-Glo® assays and normalized to vehicle controls. For each combination study, the level of growth inhibition (fraction affected) is plotted relative to vehicle control. Data are presented as one relevant combination point and the corresponding single agent data for each cell line tested.

[7] = tested on: HGC-27; experiment: 72 hr viability by Syto60, gastric cell line; format: cell-based; conditions: Homo sapiens, Syto60 (lower), read-out: ganetespib IC50
[8] = tested on: KRAS substrates, including BRAF and CRAF; experiment: KRAS substrates at the molecular level in KRAS mutant NSCLC cells; format: cell-based
[9] = tested on: HIF-1α and VEGF; experiment: Western blot of HIF-1α and VEGF in pancreatic cancer cell lines; format: cell-based; conditions: 50 nM, 24 h
Procedure: It's postulated that functional inhibition of Hsp90 by ganetespib can inhibit angiogenesis and growth in vitro and in vivo models of pancreatic cancer. PANC-1 and HPAC cell lines were treated with vehicle or G (50 nM) for 24 h and lysates were analyzed by Western blot. Egg CAM and matrigel plug assays were performed to quantify the effects of ganetespib on angiogenesis. Efficacy of ganetespib (100 mg/kg) was assessed in mice bearing HPAC and ASPC-1 xenograft.
Primary antibodies specific to Hsp90, HIF-1α, VEGF, Actin and HRP conjugated secondary antibodies (Santa Cruz Biotechnology, California and Cell Signaling Technology, USA) were used for Western blot. Ganetespib was provided by Synta Pharmaceuticals, Lexington, Mass. and Matrigel was purchased from BD Biosciences.
Cells were harvested at the end of treatment and lysed in the RIPA protein extraction buffer (Sigma-Aldrich, Saint Louis, Mo., USA) containing the protease inhibitor cocktail. Equal amounts of protein fractions of lysates were resolved over SDS-PAGE and transferred on to PVDF membrane. Membranes were incubated with primary antibodies followed by HRP-conjugated secondary antibodies. Bound antibodies were visualized using enhanced chemiluminescence. To confirm equal loading, membranes were verified and re-probed with an antibody specific for the housekeeping gene, anti-β-actin.

[10] = tested on: SNU-1; experiment: 72 hr viability by Syto60, gastric cell line; format: cell-based; conditions: Homo sapiens, SNU1, Syto60 (lower), read-out: ganetespib IC50
[11] = tested on: 15 KRAS mutant NSCLC cell lines; experiment: Viability of KRAS mutant NSCLC cell line panel, 72 h, CellTiter-Glo; format: cell-based; conditions: across 15 KRAS mutant NSCLC cell lines in vitro
Procedure: Breast cancer is a heterogeneous disease historically broken down into 4 subtypes. Various compounds were tested for their effects in cell viability assays using various breast cancer cell lines. Cellular viability was assessed using the CellTiter-Glo® Luminescent Cell Viability Assay (Promega, Madison, Wis., USA) according to the manufacturer's protocol. KRAS mutant NSCLC cell lines were seeded into 96-well plates based on optimal growth rates determined empirically for each line. Twenty-four hours after plating, cells were dosed with graded concentrations of ganetespib for 72 h. CellTiter-Glo® was added (50% v/v) to the cells, and the plates incubated for 10 min prior to luminescent detection in a SpectraMax® Plus 384 microplate reader (Molecular Devices, Sunnyvale, Calif., USA). Data were normalized to percent of control and IC50 values used to determine the sensitivity of each line. For the comparative analysis study with MEK and PI3K/mTOR inhibitors, A549, H2009, Calu-1, and H358 cells were treated with graded concentrations of ganetespib, AZD6244, or BEZ235 for 72 h and cell viability measured as above.

[12] = tested on: BT-474 breast cancer cells grown as mammospheres; experiment: Viability of mammospheres in Matrigel, 72 hr, AlamarBlue; format: cell-based; conditions: Homo sapiens, BT-474 mammospheres in Matrigel
Procedure: The cells were treated for 72 hr and analyzed by microscopy. IC50 was determined by AlamarBlue®.
BT-474 HER2+ luminal cells were cultured as mammospheres in Matrigel® and exposed to ganetespib for 72 hr.

CC(C)c1cc(-c2nnc(O)n2-c2ccc3c(ccn3C)c2)c(O)cc1O [ganetespib]
Average tumor volume as compared to vehicle [1]: significantly reduced | Bleomycin-induced Chk1 and Chk2 phosphorylation [2]: blocked | Effect on Hsp90 client proteins by western blot [3]: complete degradation of MET and IGF-IR | Effect on Hsp90 client proteins by western blot [4]: abolished the expression of EGFR, IGF-IR, C-RAF | Modulation of EGFR and other client proteins [5]: depletion of EGFR and JAK2 | Increase in cell death versus monotherapy ([6]; ganetespib combined with alkylating agents): ≤ 61% | Increase in cell death versus monotherapy ([6]; ganetespib combined with anti-mitotics): up to 44% | Increase in cell death versus monotherapy ([6]; ganetespib combined with topoisomerase inhibitors): ≤ 26% | Greater activity than monotherapy ([6]; low dose of ganetespib combined with MEK inhibitors): up to 77% | Greater activity than monotherapy ([6]; low dose of ganetespib combined with PI3K/mTOR inhibitors): ≤ 42% | IC50 [7]: 11 nM | Effect on KRAS substrates [8]: induced the destabilization of several KRAS substrates, including BRAF and CRAF | HIF-1α and VEGF protein levels [9]: decreased HIF-1α a and VEGF expression; also recorded: decreased levels | IC50 [10]: 6 nM | IC50 [11]: 24 nM | IC50 [12]: 20 nM
